In patent US12268694B2, “Combination pharmaceutical agents as RSV inhibitors” (Enanta Pharmaceuticals, Inc., priority 2017, dated 2025) one finds EC50 data, which are given here for 53 compounds.

Where only a bound is given, the exact number is not on record here.

The subject of one assay is genotype A, "Long" strain RSV. The experiment in a line: RSV-A assay: CPE protection in HEp-2 cells, ATPlite readout. Format: cell-based, human respiratory syncytial virus. To be noted: HEp-2 cells, RSV-A Long strain, ATPlite readout; read-out: Human RSV-A (“Long” strain) EC50. The source says:
HEp-2 cells, (originally derived from tumors grown in irradiated-cortisonised weanling rats that had been injected with epidermoid carcinoma tissue from a person's larynx, but later found to be indistinguishable from HeLa cells by PCR DNA analysis), were used for the culturing of genotype A, “Long” strain RSV. Flasks were inoculated with RSV and viral stocks were collected once cytopathic effect (CPE) was greater than 90%. Viral stocks in 25% sucrose media were snap frozen using liquid nitrogen to increase viral stability. Viral stock titers were quantified by tissue culture infectious dose 50% (TCID50) using 8,000 cells per well and 3-fold viral dilutions across a 96-well plate, cultured for 4 days. Viral stock titers were also quantified by a plaque forming unit assay, as described elsewhere.
Following extensive parameter testing, the final assay is run as follows: HEp-2 cells are seeded into the inner 60 wells of a 96-well plate at 8,000 cells per well in a volume of 50 μL using Growth Media (DMEM without phenol red, 1% L-Glut, 1% Penn/Strep, 1% nonessential amino acids, 10% heat-inactivated FBS). 2-fold serial dilutions of control and test compounds are added to the wells in duplicate in a total volume of 25 μL. Viral stock is then added to the wells at a multiplicity of infection (MOI) of 0.1 in a volume of 25 μL, bringing the total volume of each well to 100 μL. The MOI is calculated using the PFU/mL, or TCID50 if unavailable. Each 96-well plate has a control column of 6 wells with cells and virus but no compound (negative control, max CPE), a column with cells but no compound or virus (positive control, minimum CPE), and a column with no cells or virus or compound (background plate/reagent control). The control wells with cells but no virus are given an additional 25 μL of growth media containing an equal quantity of sucrose as those wells receiving the viral stock in order to keep consistent in media and volume conditions. The outer wells of the plate are filled with 125 μL of moat media (DMEM, 1% Penn/Strep) to act as a thermal and evaporative moat around the test wells. Following a 5-day incubation period, the plates are read using ATPlite (50 μL added per well), which quantifies the amount of ATP (a measure of cell health) present in each well. Assay plates are read using the Envision luminometer. In parallel, cytotoxicity is examined on an additional 96-well plate treated in an identical manner, but substituting the 25 μL of viral stock for 25 μL of growth media. […] EC50 ranges are as follows: A <0.4 μM; B 0.4-0.8 μM; C >0.8 μM and CC50 ranges are as follows: A >50 μM; B 10-50 μM; C <10 μM.
Consider `O=C1Nc2c(F)cccc2C(c2ccccc2)=N[C@@H]1Nc1nnc(-c2cccnc2N2CCOCC2)o1` (single isomer, unassigned) [Example 357], for which the EC50 (commonly the concentration needed to bring the measured effect to its halfway point) is above 0.8 µM. Same read-out and setting: to `O=C1Nc2c(F)cccc2C(c2ccccc2)=N[C@@H]1Nc1nnc(-c2ncc(C(F)(F)F)cc2N2CCOCC2)o1` (single isomer, unassigned) [Example 359] belongs below 0.4 µM; to `O=C1Nc2ccccc2C(c2ccccc2)=NC1Nc1nnc(-c2ncc(F)cc2N2CCOCC2)o1` (centres unmarked) [Example 137], above 0.8 µM. The same measure, in the same setting: the result for `O=C1Nc2ccccc2C(c2ccccc2)=NC1Nc1nnc(-c2ncc(F)cc2N2CCOCC2)o1` (centres unmarked) [Example 138] reads below 0.4 µM; that for `O=C1Nc2ccccc2C(c2ccccc2)=NC1Nc1nnc(-c2ccc(F)nc2N2CCOCC2)o1` (centres unmarked) [Example 149], 0.4 to 0.8 µM; that for `O=C1Nc2ccccc2C(c2ccccc2)=NC1Nc1nnc(-c2ccc(F)nc2N2CCOCC2)o1` (centres unmarked) [Example 150], below 0.4 µM.

Still in this assay, the particulars now being: human respiratory syncytial virus, HEp-2, read-out: Human RSV-A (“Long” strain) EC50.
For the compound `O=C1Nc2ccccc2C(c2ccccc2)=N[C@@H]1Nc1nnc(-c2ncc(C(F)(F)F)cc2N2CCOC3CC32)o1` (mixture of isomers) [Example 466], the 50% effective concentration (EC50) was below 0.4 µM. Turning to `O=C1Nc2ccccc2C(c2ccccc2)=N[C@@H]1Nc1nnc(-c2ncc(C(F)(F)F)cc2N2CCOC(C(F)(F)F)C2)o1` (mixture of isomers) [Example 467], the concentration giving a half-maximal response (EC50) is below 0.4 µM. The same measure, in the same setting: the result for `CCOC1(c2nc(-c3nnc(N[C@H]4N=C(c5ccccc5)c5ccccc5NC4=O)o3)c(N3CCOCC3)s2)CCC1` (stereo in doubt) [Example 458] reads below 0.4 µM.

Regarding `N#Cc1ccc(-c2nnc(NC3N=C(c4ccccc4)c4ccccc4NC3=O)o2)nc1` (centres unmarked) [Example 24], the 50% effective concentration (EC50) lay in the range of 0.4 to 0.8 µM. Take `COc1cc(-c2nnc(NC3N=C(c4ccccc4)c4ccccc4NC3=O)o2)ccn1` (centres unmarked) [Example 56]: the concentration for a half-maximal effect (EC50) was above 0.8 µM. On the same count and under the same terms, the result for `CCOC(=O)c1nnc(NC2N=C(c3ccccc3)c3ccccc3NC2=O)o1` (centres unmarked) [Example 78] reads above 0.8 µM; that for `O=C1Nc2ccccc2C(c2ccccc2)=NC1Nc1ncc(-c2ccccc2)s1` (centres unmarked) [Example 85], above 0.8 µM. Turning to `O=C1Nc2ccccc2C(c2ccccc2)=NC1Nc1noc(-c2ccccc2)n1` (centres unmarked) [Example 91], the EC50 was above 0.8 µM. As to `COc1ccc(CN2C(=O)C(C)(N)N=C(c3ccccc3)c3ccccc32)cc1` (centres unmarked) [Example 102], the EC50 was above 0.8 µM. Still for that read-out and setting: the result for `CS(=O)(=O)c1ccc(-c2nnc(NC3N=C(c4ccccc4)c4ccccc4NC3=O)o2)nc1` (centres unmarked) [Example 107] reads above 0.8 µM; that for `COc1ccc(-c2nnc(NC3N=C(c4ccccc4)c4ccccc4NC3=O)o2)nc1Cl` (centres unmarked) [Example 109], above 0.8 µM. On the same count and under the same terms, the result for `Cc1nc(-c2nnc(NC3N=C(c4ccccc4)c4ccccc4NC3=O)o2)ccc1F` (centres unmarked) [Example 110] reads above 0.8 µM; that for `O=C1Nc2ccccc2C(c2ccccc2)=NC1Nc1nnc(-c2cccc(N3CCOCC3)c2)o1` (centres unmarked) [Example 111], above 0.8 µM. Same read-out and setting: the result for `O=C1Nc2ccccc2C(c2ccccc2)=NC1Nc1nnc(-c2ccc(N3CCOCC3)c(F)c2)o1` (centres unmarked) [Example 112] reads above 0.8 µM; that for `Cc1cc(-c2nnc(NC3N=C(c4ccccc4)c4ccccc4NC3=O)o2)ccc1N1CCOCC1` (centres unmarked) [Example 113], 0.4 to 0.8 µM.

For `O=C1Nc2ccccc2C(c2ccccc2)=NC1Nc1nnc(-c2ccc(N3CCOCC3)cn2)o1` (centres unmarked) [Example 114], the concentration for a half-maximal effect (EC50) is above 0.8 µM. On the same count and under the same terms, to `O=C1Nc2ccccc2C(c2ccccc2)=NC1Nc1nnc(-c2ccc(N3CCOCC3)nc2)o1` (centres unmarked) [Example 115] belongs below 0.4 µM; to `O=C1Nc2ccccc2C(c2ccccc2)=NC1Nc1nnc(-c2ccc(NC3CCCCC3)cc2)o1` (centres unmarked) [Example 116], above 0.8 µM.

As to `COCCNc1ccc(-c2nnc(NC3N=C(c4ccccc4)c4ccccc4NC3=O)o2)cc1` (centres unmarked) [Example 117], the EC50 was above 0.8 µM. The same measure, in the same setting: the result for `COCCN(C)c1ccc(-c2nnc(NC3N=C(c4ccccc4)c4ccccc4NC3=O)o2)cc1` (centres unmarked) [Example 118] reads above 0.8 µM; that for `O=C1Nc2ccccc2C(c2ccccc2)=NC1Nc1nnc(-c2cc(F)ccc2N2CCOCC2)o1` (centres unmarked) [Example 119], 0.4 to 0.8 µM; that for `CS(=O)(=O)c1ccc(-c2nnc(NC3N=C(c4ccccc4)c4ccccc4NC3=O)o2)c(N2CCOCC2)c1` (centres unmarked) [Example 121], above 0.8 µM. Same read-out and setting: the result for `O=C1Nc2ccccc2C(c2ccccc2)=NC1Nc1nnc(-c2ccc(N3CCOCC3)cc2Cl)o1` (centres unmarked) [Example 122] reads above 0.8 µM; that for `O=C1Nc2ccccc2C(c2ccccc2)=N[C@@H]1Nc1nnc(-c2ccc(N3CCOCC3)cc2)o1` [Example 124a], below 0.4 µM. Still for that read-out and setting: the result for `O=C1Nc2ccccc2C(c2ccccc2)=N[C@H]1Nc1nnc(-c2ccc(N3CCOCC3)cc2)o1` [Example 124b] reads above 0.8 µM.

In the case of `O=C1Nc2ccccc2C(c2ccccc2)=N[C@@H]1Nc1nnc(-c2ccccc2N2CCOCC2)o1` [Example 125a], the EC50 was below 0.4 µM.

`O=C1Nc2ccccc2C(c2ccccc2)=N[C@H]1Nc1nnc(-c2ccccc2N2CCOCC2)o1` [Example 125b]: the 50% effective concentration (EC50) was above 0.8 µM. As to `O=C1Nc2ccccc2C(c2ccccc2)=N[C@@H]1Nc1nnc(-c2ccc(N3CCOCC3)cc2F)o1` [Example 126a], the EC50 is below 0.4 µM. Same read-out and setting: to `O=C1Nc2ccccc2C(c2ccccc2)=N[C@H]1Nc1nnc(-c2ccc(N3CCOCC3)cc2F)o1` [Example 126b] belongs above 0.8 µM. In the case of `O=C1Nc2ccccc2C(c2ccccc2)=NC1Nc1nnc(-c2ccc(-n3cncn3)cc2N2CCOCC2)o1` (centres unmarked) [Example 128], the EC50 is 0.4 to 0.8 µM. The same measure, in the same setting: the result for `O=C1Nc2ccccc2C(c2ccccc2)=NC1Nc1nnc(-c2ccc(C(F)(F)F)nc2N2CCOCC2)o1` (centres unmarked) [Example 130] reads 0.4 to 0.8 µM. With `O=C1Nc2ccccc2C(c2ccccc2)=NC1Nc1nnc(-c2ncccc2N2CCOCC2)o1` (centres unmarked) [Example 132], the EC50 is below 0.4 µM.

Turning to `O=C1Nc2ccccc2C(c2ccccc2)=NC1Nc1nnc(-c2cnccc2N2CCOCC2)o1` (centres unmarked) [Example 133], the concentration for a half-maximal effect (EC50) was 0.4 to 0.8 µM. Still for that read-out and setting: the result for `O=C1Nc2ccccc2C(c2ccccc2)=NC1Nc1nnc(-c2cnccc2N2CCCCC2)o1` (centres unmarked) [Example 134] reads above 0.8 µM; that for `O=C1Nc2ccccc2C(c2ccccc2)=NC1Nc1nnc(-c2ncc(N3CCOCC3)cc2Cl)o1` (centres unmarked) [Example 135], above 0.8 µM. Same read-out and setting: the result for `N#Cc1cnc(-c2nnc(NC3N=C(c4ccccc4)c4ccccc4NC3=O)o2)c(N2CCOCC2)c1` (centres unmarked) [Example 140] reads below 0.4 µM; that for `O=C1Nc2ccccc2C(c2ccccc2)=NC1Nc1nnc(-c2ccncc2N2CCCCC2)o1` (centres unmarked) [Example 141], above 0.8 µM. Turning to `O=C1Nc2ccccc2C(c2ccccc2)=NC1Nc1nnc(-c2ccncc2N2CCOCC2)o1` (centres unmarked) [Example 142], the EC50 was 0.4 to 0.8 µM. On the same count and under the same terms, the result for `O=C1Nc2ccccc2C(c2ccccc2)=NC1Nc1nnc(-c2nccnc2N2CCOCC2)o1` (centres unmarked) [Example 143] reads below 0.4 µM; that for `O=C1Nc2ccccc2C(c2ccccc2)=NC1Nc1nnc(-c2cc(F)cnc2N2CCOCC2)o1` (centres unmarked) [Example 145], 0.4 to 0.8 µM. On the same count and under the same terms, the result for `O=C1Nc2ccccc2C(c2ccccc2)=NC1Nc1nnc(-c2cc(C(F)(F)F)cnc2N2CCOCC2)o1` (centres unmarked) [Example 146] reads above 0.8 µM; that for `O=C1Nc2ccccc2C(c2ccccc2)=NC1Nc1nnc(-c2ccc(N3CCOCC3)cc2C(F)(F)F)o1` (centres unmarked) [Example 147], above 0.8 µM; that for `O=C1Nc2ccccc2C(c2ccccc2)=NC1Nc1nnc(-c2cccc(F)c2N2CCOCC2)o1` (centres unmarked) [Example 148], above 0.8 µM.

In the case of `O=C1Nc2ccccc2C(c2ccccc2)=N[C@@H]1Nc1nnc(-c2ccc(F)nc2N2CCOCC2)o1` [Example 151, (S)-3-((5-(6-fluoro-2-morpholinopyridin-3-yl)-1,3,4-oxadiazol-2-yl)amino)-5-phenyl-1,3-dihydro-2H-benzo[e][1,4]diazepin-2-one], the half-maximal effective concentration (EC50) was below 0.4 µM. On the same count and under the same terms, the result for `O=C1Nc2ccccc2C(c2ccccc2)=N[C@@H]1Nc1nnc(-c2ccc(C(F)(F)F)cc2N2CCOCC2)o1` [Example 152] reads below 0.4 µM; that for `O=C1Nc2ccccc2C(c2ccccc2)=N[C@@H]1Nc1nnc(-c2ccc(C3CC3)nc2N2CCOCC2)o1` [Example 154], below 0.4 µM; that for `O=C1Nc2ccccc2C(c2ccccc2)=N[C@@H]1Nc1nnc(-c2ccc(=O)[nH]c2N2CCOCC2)o1` [Example 156, (S)-3-((5-(2-morpholino-6-oxo-1,6-dihydropyridin-3-yl)-1,3,4-oxadiazol-2-yl)amino)-5-phenyl-1,3-dihydro-2H-benzo[e][1,4]diazepin-2-one], above 0.8 µM.
